Test results reported in ChEMBL document CHEMBL4507302, “Data for DCP probe TP-020” (2021).

Tests used:
[1] = system: Mast/stem cell growth factor receptor Kit (Homo sapiens), P10721 [D816H]; settings: Compound concentration 1000.0 nM
[2] = system: Proto-oncogene tyrosine-protein kinase receptor Ret (Homo sapiens), P07949 [V804M]; settings: Compound concentration 1000.0 nM
[3] = target: Mitogen-activated protein kinase 14 (Homo sapiens) (UniProt Q16539); settings: Compound concentration 1000.0 nM
[4] = target: Serine/threonine-protein kinase Nek6 (Homo sapiens) (UniProt Q9HC98); settings: Compound concentration 1000.0 nM
[5] = target: Calcium/calmodulin-dependent protein kinase type II subunit beta (Homo sapiens) (UniProt Q13554); settings: Compound concentration 1000.0 nM
[6] = target: TGF-beta receptor type-1 (Homo sapiens) (UniProt P36897); settings: Compound concentration 1000.0 nM
TGF-beta receptor type-1 (Homo sapiens), sequence (P36897 whole entry): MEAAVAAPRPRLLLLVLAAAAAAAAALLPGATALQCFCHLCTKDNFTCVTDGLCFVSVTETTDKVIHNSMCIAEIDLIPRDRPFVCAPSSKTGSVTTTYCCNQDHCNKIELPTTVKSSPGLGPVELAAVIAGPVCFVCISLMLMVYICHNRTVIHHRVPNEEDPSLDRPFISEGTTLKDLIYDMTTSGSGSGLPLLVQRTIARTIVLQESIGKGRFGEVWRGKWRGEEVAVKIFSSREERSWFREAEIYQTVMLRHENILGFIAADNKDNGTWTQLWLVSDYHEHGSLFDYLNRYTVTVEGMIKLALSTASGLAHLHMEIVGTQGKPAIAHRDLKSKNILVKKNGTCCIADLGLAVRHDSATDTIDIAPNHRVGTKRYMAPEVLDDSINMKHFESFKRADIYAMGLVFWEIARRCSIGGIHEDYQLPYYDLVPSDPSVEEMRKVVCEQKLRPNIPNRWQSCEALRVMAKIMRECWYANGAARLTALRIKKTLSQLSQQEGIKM

[7] = target: Focal adhesion kinase 1 (Homo sapiens) (UniProt Q05397); settings: Compound concentration 1000.0 nM
Focal adhesion kinase 1 (Homo sapiens), sequence (Q05397 2-1052 limits assumed): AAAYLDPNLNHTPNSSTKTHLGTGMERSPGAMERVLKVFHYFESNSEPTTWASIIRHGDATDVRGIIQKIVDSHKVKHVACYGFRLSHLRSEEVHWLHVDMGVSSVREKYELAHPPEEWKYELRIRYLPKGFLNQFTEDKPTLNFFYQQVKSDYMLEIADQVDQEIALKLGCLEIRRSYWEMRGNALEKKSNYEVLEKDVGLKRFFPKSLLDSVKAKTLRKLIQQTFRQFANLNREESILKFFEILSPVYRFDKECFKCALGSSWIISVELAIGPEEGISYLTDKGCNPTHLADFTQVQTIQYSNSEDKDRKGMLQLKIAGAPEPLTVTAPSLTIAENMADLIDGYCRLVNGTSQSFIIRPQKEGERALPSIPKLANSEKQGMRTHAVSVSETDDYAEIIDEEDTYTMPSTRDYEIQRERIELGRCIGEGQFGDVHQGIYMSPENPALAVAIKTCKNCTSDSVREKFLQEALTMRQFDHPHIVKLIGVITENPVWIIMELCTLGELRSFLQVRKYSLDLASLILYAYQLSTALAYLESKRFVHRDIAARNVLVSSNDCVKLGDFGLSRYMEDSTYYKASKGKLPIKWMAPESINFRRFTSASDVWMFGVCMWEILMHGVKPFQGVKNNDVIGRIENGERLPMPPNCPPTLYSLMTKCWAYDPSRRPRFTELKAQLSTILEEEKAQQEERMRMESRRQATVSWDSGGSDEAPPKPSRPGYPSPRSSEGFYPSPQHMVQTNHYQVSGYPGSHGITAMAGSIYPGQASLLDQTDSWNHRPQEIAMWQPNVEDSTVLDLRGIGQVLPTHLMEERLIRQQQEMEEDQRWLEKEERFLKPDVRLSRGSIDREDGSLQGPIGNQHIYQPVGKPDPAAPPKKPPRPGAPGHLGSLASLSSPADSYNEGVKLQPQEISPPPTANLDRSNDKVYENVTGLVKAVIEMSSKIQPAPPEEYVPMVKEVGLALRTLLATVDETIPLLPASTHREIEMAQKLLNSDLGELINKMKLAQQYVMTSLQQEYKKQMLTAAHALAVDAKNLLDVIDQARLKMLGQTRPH

[8] = target: Eukaryotic translation initiation factor 2-alpha kinase 1 (Homo sapiens) (UniProt Q9BQI3); settings: Compound concentration 1000.0 nM
[9] = target: GABA-A receptor; anion channel (Rattus norvegicus) (UniProt O09028+P15431+P18506+P18508+P19969+P20236+P23574+P23576+P28471+P28473+P30191+P62813+P63079+P63138+Q91ZM7+Q9ES14); settings: Compound concentration 10.0 uM
[10] = system: Leucine-rich repeat serine/threonine-protein kinase 2 (Homo sapiens), Q5S007 [G2019S]; settings: Compound concentration 1000.0 nM
[11] = target: Muscarinic acetylcholine receptor M5 (Homo sapiens) (UniProt P08912); settings: Compound concentration 10.0 uM
[12] = system: Phosphatidylinositol 4,5-bisphosphate 3-kinase catalytic subunit alpha isoform (Homo sapiens), P42336 [M1043I]; settings: Compound concentration 1000.0 nM
[13] = target: High affinity nerve growth factor receptor (Homo sapiens) (UniProt P04629); settings: Compound concentration 1000.0 nM
[14] = system: Phosphatidylinositol 4,5-bisphosphate 3-kinase catalytic subunit alpha isoform (Homo sapiens), P42336 [E545A]; settings: Compound concentration 1000.0 nM
[15] = target: Casein kinase II subunit alpha (Homo sapiens) (UniProt P68400); settings: Compound concentration 1000.0 nM
[16] = target: Tyrosine-protein kinase receptor UFO (Homo sapiens) (UniProt P30530); settings: Compound concentration 1000.0 nM
[17] = target: Mitogen-activated protein kinase kinase kinase 2 (Homo sapiens) (UniProt Q9Y2U5); settings: Compound concentration 1000.0 nM
[18] = target: Alpha-2B adrenergic receptor (Homo sapiens) (UniProt P18089); settings: Compound concentration 10.0 uM
[19] = target: Vascular endothelial growth factor receptor 1 (Homo sapiens) (UniProt P17948); settings: Compound concentration 1000.0 nM
[20] = target: Calcium/calmodulin-dependent protein kinase kinase 2 (Homo sapiens) (UniProt Q96RR4); settings: Compound concentration 1000.0 nM
[21] = target: Receptor tyrosine-protein kinase erbB-4 (Homo sapiens) (UniProt Q15303); settings: Compound concentration 1000.0 nM
[22] = system: Epidermal growth factor receptor (Homo sapiens), P00533 [G719C]; settings: Compound concentration 1000.0 nM
[23] = system: Tyrosine-protein kinase ABL1 (Homo sapiens), P00519 [F317L]; settings: Compound concentration 1000.0 nM
[24] = target: Non-receptor tyrosine-protein kinase TYK2 (Homo sapiens) (UniProt P29597); settings: Compound concentration 1000.0 nM
[25] = target: Fibroblast growth factor receptor 1 (Homo sapiens) (UniProt P11362); settings: Compound concentration 1000.0 nM
[26] = target: Hormonally up-regulated neu tumor-associated kinase (Homo sapiens) (UniProt P57058); settings: Compound concentration 1000.0 nM
[27] = target: Serine/threonine-protein kinase PAK 4 (Homo sapiens) (UniProt O96013); settings: Compound concentration 1000.0 nM
Serine/threonine-protein kinase PAK 4 (Homo sapiens), sequence (O96013 whole entry, looked up): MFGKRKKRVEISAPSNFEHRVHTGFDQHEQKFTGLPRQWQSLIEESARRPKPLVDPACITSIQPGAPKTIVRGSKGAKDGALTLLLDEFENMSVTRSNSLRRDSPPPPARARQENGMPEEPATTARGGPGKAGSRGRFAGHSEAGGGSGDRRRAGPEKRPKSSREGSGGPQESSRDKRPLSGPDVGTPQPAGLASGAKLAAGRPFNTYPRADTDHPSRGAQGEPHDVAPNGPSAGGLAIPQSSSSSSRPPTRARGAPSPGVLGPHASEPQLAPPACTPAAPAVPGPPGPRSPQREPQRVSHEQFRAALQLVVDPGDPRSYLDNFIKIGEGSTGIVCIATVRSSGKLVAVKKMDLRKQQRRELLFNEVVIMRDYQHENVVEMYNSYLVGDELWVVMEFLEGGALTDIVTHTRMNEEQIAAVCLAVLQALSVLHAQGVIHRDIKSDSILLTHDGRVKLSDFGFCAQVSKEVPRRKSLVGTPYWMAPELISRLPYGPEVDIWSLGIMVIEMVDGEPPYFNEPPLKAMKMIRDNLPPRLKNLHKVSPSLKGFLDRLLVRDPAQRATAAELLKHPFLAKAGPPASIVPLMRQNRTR

[28] = target: Tyrosine-protein kinase receptor TYRO3 (Homo sapiens) (UniProt Q06418); settings: Compound concentration 1000.0 nM
Tyrosine-protein kinase receptor TYRO3 (Homo sapiens), sequence (Q06418 whole entry): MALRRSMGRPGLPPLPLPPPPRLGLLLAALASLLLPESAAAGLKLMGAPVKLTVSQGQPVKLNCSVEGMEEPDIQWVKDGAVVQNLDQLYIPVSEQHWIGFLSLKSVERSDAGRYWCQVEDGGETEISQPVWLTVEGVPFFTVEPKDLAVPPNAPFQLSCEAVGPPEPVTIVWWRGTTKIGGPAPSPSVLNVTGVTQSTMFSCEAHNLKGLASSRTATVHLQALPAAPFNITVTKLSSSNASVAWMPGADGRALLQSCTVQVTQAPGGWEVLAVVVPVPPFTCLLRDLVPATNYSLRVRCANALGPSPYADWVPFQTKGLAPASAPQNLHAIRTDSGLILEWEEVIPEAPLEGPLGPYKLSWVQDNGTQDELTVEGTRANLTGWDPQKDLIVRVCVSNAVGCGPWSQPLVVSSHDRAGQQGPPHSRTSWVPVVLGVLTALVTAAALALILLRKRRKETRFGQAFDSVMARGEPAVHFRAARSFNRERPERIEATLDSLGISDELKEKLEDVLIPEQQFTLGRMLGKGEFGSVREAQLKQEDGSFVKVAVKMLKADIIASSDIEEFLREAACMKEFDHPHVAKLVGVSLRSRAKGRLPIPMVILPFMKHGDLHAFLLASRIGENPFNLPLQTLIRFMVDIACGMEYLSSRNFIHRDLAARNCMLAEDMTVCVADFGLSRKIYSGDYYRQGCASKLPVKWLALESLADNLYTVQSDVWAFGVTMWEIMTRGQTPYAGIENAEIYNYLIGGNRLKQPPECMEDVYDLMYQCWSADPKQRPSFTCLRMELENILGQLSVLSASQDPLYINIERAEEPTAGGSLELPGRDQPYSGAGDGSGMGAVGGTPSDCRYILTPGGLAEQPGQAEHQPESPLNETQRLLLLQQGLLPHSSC

[29] = target: Cyclin-dependent kinase 4 (Homo sapiens) (UniProt P11802); settings: Compound concentration 1000.0 nM
Cyclin-dependent kinase 4 (Homo sapiens), sequence (P11802 whole entry): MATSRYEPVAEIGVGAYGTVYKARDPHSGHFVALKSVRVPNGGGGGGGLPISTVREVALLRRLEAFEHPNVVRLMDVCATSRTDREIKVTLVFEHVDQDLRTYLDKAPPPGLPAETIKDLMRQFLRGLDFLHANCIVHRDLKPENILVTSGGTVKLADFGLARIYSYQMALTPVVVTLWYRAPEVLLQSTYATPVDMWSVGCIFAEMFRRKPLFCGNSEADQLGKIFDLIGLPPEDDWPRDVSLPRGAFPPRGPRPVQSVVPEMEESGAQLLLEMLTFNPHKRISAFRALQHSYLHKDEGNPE

[30] = target: Platelet-derived growth factor receptor beta (Homo sapiens) (UniProt P09619); settings: Compound concentration 1000.0 nM
[31] = target: Cyclin-dependent kinase 16 (Homo sapiens) (UniProt Q00536); settings: Compound concentration 1000.0 nM
[32] = target: Serine/threonine-protein kinase SIK2 (Homo sapiens) (UniProt Q9H0K1); settings: Compound concentration 1000.0 nM
Serine/threonine-protein kinase SIK2 (Homo sapiens), sequence (Q9H0K1 whole entry, looked up): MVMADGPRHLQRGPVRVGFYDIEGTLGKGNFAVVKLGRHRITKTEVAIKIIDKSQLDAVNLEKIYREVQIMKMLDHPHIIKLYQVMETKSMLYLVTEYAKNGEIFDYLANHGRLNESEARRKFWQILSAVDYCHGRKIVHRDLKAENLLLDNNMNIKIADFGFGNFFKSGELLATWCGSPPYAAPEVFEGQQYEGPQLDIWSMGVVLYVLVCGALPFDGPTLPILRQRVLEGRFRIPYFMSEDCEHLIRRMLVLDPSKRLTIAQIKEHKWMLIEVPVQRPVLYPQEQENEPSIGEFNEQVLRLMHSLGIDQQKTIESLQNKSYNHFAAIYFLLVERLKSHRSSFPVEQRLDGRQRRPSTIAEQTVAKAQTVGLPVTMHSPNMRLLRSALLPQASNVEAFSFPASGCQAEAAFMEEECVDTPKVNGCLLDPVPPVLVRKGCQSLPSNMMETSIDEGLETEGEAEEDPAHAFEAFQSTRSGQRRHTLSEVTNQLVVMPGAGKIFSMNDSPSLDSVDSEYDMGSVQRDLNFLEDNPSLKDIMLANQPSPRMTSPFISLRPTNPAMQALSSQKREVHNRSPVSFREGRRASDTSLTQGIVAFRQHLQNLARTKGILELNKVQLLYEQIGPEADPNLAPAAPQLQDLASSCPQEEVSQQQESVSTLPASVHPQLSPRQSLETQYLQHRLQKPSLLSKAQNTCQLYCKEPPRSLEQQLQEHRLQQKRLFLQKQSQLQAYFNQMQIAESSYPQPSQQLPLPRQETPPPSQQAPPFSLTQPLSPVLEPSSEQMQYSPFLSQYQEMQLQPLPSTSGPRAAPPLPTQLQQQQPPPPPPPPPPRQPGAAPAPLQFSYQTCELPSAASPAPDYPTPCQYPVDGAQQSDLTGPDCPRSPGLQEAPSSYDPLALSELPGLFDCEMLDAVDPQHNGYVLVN

[33] = target: Death-associated protein kinase 3 (Homo sapiens) (UniProt O43293); settings: Compound concentration 1000.0 nM
[34] = target: Beta-adrenergic receptor kinase 1 (Homo sapiens) (UniProt P25098); settings: Compound concentration 1000.0 nM
[35] = target: Serine/threonine-protein kinase 16 (Homo sapiens) (UniProt O75716); settings: Compound concentration 1000.0 nM
[36] = target: Alpha-1D adrenergic receptor (Homo sapiens) (UniProt P25100); settings: Compound concentration 10.0 uM
[37] = target: Proto-oncogene tyrosine-protein kinase Src (Homo sapiens) (UniProt P12931); settings: Compound concentration 1000.0 nM
[38] = target: Serine/threonine-protein kinase 17B (Homo sapiens) (UniProt O94768); settings: Compound concentration 1000.0 nM
[39] = target: Glycogen synthase kinase-3 beta (Homo sapiens) (UniProt P49841); settings: Compound concentration 1000.0 nM
[40] = target: Aurora kinase A (Homo sapiens) (UniProt O14965); settings: Compound concentration 1000.0 nM
[41] = target: Ribosomal protein S6 kinase alpha-2 (Homo sapiens) (UniProt Q15349); settings: Compound concentration 1000.0 nM
Ribosomal protein S6 kinase alpha-2 (Homo sapiens), sequence (Q15349 whole entry): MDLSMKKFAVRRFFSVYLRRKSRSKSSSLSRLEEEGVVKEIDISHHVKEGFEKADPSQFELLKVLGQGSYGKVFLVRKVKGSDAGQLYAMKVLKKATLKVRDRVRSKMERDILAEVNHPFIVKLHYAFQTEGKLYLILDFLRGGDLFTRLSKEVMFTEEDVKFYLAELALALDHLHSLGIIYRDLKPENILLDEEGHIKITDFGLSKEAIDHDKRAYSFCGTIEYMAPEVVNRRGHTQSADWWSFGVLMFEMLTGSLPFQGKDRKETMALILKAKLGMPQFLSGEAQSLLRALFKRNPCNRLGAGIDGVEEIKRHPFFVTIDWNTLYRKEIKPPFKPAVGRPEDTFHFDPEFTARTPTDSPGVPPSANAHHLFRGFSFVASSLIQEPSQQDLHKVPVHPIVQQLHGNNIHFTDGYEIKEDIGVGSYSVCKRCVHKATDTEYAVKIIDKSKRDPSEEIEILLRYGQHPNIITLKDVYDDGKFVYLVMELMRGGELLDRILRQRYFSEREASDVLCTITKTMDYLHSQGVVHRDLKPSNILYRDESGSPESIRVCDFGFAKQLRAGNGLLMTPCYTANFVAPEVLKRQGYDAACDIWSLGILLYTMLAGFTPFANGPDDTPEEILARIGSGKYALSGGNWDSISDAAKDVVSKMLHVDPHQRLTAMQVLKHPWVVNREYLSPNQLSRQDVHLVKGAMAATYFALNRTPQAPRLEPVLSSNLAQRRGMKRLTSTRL

[42] = target: Serine/threonine-protein kinase PRP4 homolog (Homo sapiens) (UniProt Q13523); settings: Compound concentration 1000.0 nM
[43] = target: Ephrin type-A receptor 3 (Homo sapiens) (UniProt P29320); settings: Compound concentration 1000.0 nM
[44] = target: Tyrosine-protein kinase TXK (Homo sapiens) (UniProt P42681); settings: Compound concentration 1000.0 nM

Nc1cnc(N2CCc3cc(S(=O)(=O)Nc4c(F)cc(Cl)cc4F)cc(N4CCCC4=O)c32)nc1
inactive: residual activity [1] 100% | residual activity [2] 100% | residual activity [3] 100% | residual activity [4] 100% | residual activity [5] 100% | residual activity [6] 100% | residual activity [7] 99% | residual activity [8] 94% | inhibition [9] -1.96% | residual activity [10] 81% | inhibition [11] 1.45% | residual activity [12] 100% | residual activity [13] 100% | residual activity [14] 100% | residual activity [15] 100% | residual activity [16] 69% | residual activity [17] 100% | inhibition [18] 0.99% | residual activity [19] 93% | residual activity [20] 100% | residual activity [21] 100% | residual activity [22] 100% | residual activity [23] 99% | residual activity [24] 100% | residual activity [25] 88% | residual activity [26] 99% | residual activity [27] 89% | residual activity [28] 100% | residual activity [29] 97% | residual activity [30] 100% | residual activity [31] 98% | residual activity [32] 100% | residual activity [33] 83% | residual activity [34] 100% | residual activity [35] 100% | inhibition [36] -2.31% | residual activity [37] 99% | residual activity [38] 100% | residual activity [39] 100% | residual activity [40] 100% | residual activity [41] 100% | residual activity [42] 76% | residual activity [43] 78% | residual activity [44] 83%

Cn1nc(C(F)(F)F)cc1-c1cnc(N2CCc3cc(S(=O)(=O)Nc4c(F)cc(Cl)cc4F)cc(N4CCCC4=O)c32)nc1 [TP-020]
inactive: residual activity [1] 77% | residual activity [2] 98% | residual activity [3] 100% | residual activity [4] 100% | residual activity [5] 92% | residual activity [6] 100% | residual activity [7] 98% | residual activity [8] 100% | inhibition [9] 35.9% | residual activity [10] 93% | inhibition [11] 7.43% | residual activity [12] 89% | residual activity [13] 69% | residual activity [14] 84% | residual activity [15] 65% | residual activity [16] 93% | residual activity [17] 95% | inhibition [18] 18.5% | residual activity [19] 95% | residual activity [20] 93% | residual activity [21] 94% | residual activity [22] 100% | residual activity [23] 60% | residual activity [24] 90% | residual activity [25] 99% | residual activity [26] 68% | residual activity [27] 100% | residual activity [28] 100% | residual activity [29] 68% | residual activity [30] 90% | residual activity [31] 77% | residual activity [32] 100% | residual activity [33] 97% | residual activity [34] 85% | residual activity [35] 92% | inhibition [36] -4.04% | residual activity [37] 100% | residual activity [38] 100% | residual activity [39] 100% | residual activity [40] 88% | residual activity [41] 77% | residual activity [42] 100% | residual activity [43] 94% | residual activity [44] 100%
